Reference: patent US10172868B2, “Substituted quinazolines for inhibiting kinase activity” (NeuPharma, Inc., priority 2013, dated 2019)

Experiments:
H1975 cells = experiment: Inhibition of cancer cell growth, MTT assay, H1975; conditions: Homo sapiens, NCI-H1975, 72 h, read-out: IC50 in H1975 cells
A431 cells = experiment: cells; conditions: Homo sapiens, A-431, 72 h, read-out: IC50 in A431 cells
H3255 cells = experiment: Inhibition of cancer cell growth, MTT assay, H3255; conditions: Homo sapiens, NCI-H3255, 72 h, read-out: IC50 in H3255 cells
HCC827 cells = experiment: cells; conditions: Homo sapiens, HCC827, 72 h, read-out: IC50 in HCC827 cells
Description: Taxol (as a positive control. Sigma) and compounds were dissolved in DMSO (Sigma), and the final concentration of DMSO in the medium was 1%. Tumor cells were plated in 96-well plates at densities of about 4000 cells/well of a 96-well plate and allowed to adhere/grow for 24 h. They were then treated with various concentrations of drug for 72 h, 3-(4,5-Dimethylthiazol-2-yl)-2,5-diphenyltetrazolium bromide (MTT, Sigma) was used to determine the number of viable cells at the time of compound addition and the number of cells remaining after 72 h compound exposure. The number of cells remaining after 72 h was compared to the number of viable cells at the time of compound addition by measuring the absorbance at 570 nm, allowing for the calculation of growth inhibition.
All concentrations of compounds were tested in triplicate and controls were averaged over 4 wells. IC50 was calculated by plotting the concentration of compound vs the percentage of inhibition in treated wells using GraphPad Prism 5.
The scale utilized in Tables 5 is as follows: +++ less than 100 nM; ++ between 100 nM and 500 nM; and + greater than 500 nM.

EGFR (ErbB1) = EGFR (ErbB1) (Homo sapiens (Human), UniProt P00533); experiment: Z'-LYTE kinase inhibition assay, EGFR; assay type: biochemical; conditions: for inhibition at 0.041 µM: read-out: % inhibition against EGFR (Compound at 0.041 μM); for IC50: read-out: IC50 against EGFR
EGFR (ErbB1), sequence (P00533 25-1210): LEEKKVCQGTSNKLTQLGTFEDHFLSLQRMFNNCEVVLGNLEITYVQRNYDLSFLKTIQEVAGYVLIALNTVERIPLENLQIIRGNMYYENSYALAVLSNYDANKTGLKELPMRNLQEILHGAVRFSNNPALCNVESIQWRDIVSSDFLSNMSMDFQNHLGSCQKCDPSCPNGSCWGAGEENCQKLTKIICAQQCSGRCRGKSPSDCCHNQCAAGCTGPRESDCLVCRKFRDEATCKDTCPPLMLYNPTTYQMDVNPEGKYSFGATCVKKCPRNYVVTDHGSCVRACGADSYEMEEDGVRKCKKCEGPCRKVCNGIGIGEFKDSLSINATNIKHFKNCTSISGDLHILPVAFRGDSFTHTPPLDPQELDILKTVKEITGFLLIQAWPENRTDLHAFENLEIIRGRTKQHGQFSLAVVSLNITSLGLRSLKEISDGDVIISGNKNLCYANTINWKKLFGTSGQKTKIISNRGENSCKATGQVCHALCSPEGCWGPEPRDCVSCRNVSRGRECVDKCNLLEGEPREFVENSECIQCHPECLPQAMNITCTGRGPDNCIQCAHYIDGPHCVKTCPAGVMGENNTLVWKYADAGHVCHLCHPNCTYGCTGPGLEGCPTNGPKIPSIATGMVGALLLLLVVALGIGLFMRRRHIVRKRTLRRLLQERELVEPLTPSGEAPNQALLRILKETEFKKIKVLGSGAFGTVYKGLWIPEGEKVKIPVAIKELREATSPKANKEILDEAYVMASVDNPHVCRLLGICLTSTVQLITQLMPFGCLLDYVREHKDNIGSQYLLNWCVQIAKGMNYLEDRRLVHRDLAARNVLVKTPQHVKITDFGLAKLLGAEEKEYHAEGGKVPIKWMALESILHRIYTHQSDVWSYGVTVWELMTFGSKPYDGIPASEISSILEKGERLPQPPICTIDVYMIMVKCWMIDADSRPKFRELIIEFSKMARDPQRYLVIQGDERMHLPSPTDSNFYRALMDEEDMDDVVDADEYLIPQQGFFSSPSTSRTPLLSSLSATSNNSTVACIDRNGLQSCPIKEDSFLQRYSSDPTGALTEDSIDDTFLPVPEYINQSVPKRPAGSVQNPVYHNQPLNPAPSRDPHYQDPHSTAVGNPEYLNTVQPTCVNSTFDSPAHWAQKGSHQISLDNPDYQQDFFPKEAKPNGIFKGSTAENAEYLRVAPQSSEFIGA
Outline: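 IC50 values derived from 10-point, 3-fold compound dilution series (1% DMSO final) using Z'-LYTE fluorescence readout after 60-min development. Reaction: EGFR (1.1-5.25 ng) with 2 μM peptide, 60 min at room temperature in HEPES pH 7.5 buffer containing MgCl2, MnCl2, EGTA, DTT and BRIJ-35.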

EGFR (ErbB1) T790M L858R = EGFR (ErbB1) T790M L858R (Homo sapiens (Human), UniProt P00533, L858R/T790M); experiment: Z'-LYTE kinase inhibition assay, EGFR L858R/T790M; assay type: biochemical; conditions: for IC50: read-out: IC50 against EGFR L858R/T790M; for inhibition at 0.0137 µM: read-out: % inhibition against EGFR L858R/T790M (Compound at 0.0137 μM)
EGFR (ErbB1) T790M L858R, sequence (P00533 25-1210 T790M/L858R): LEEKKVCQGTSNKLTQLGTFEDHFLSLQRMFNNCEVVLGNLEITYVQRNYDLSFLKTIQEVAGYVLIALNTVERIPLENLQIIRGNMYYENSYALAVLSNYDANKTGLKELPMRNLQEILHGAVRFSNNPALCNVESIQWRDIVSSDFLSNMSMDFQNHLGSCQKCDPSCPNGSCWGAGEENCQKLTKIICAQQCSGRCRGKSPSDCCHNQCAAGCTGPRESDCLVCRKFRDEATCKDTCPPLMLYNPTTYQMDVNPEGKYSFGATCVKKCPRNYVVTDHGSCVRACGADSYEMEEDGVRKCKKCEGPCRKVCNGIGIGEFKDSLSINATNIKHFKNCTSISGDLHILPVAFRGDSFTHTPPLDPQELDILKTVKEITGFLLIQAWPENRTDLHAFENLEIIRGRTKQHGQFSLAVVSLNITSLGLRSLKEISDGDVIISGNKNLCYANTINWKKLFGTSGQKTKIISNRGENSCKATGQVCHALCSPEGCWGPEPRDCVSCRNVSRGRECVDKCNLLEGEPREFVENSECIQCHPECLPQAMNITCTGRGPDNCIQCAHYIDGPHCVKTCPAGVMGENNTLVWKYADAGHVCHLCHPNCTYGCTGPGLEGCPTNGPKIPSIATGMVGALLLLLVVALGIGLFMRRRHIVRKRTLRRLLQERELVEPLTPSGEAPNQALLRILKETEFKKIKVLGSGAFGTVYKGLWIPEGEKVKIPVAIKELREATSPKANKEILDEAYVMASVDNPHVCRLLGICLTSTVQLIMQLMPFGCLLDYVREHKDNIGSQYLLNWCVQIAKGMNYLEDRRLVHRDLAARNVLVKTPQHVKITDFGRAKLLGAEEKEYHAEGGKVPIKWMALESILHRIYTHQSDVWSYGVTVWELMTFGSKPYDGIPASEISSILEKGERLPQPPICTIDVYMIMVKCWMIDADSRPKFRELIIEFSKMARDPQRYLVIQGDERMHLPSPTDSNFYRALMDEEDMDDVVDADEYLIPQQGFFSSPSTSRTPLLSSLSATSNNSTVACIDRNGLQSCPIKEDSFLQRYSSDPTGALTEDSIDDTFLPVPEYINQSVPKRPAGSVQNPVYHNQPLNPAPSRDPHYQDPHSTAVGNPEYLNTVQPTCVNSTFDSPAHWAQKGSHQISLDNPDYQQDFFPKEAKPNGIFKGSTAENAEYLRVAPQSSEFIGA
Outline: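 IC50 taken from 10-point, 3-fold serial dilutions tested in 1% DMSO. The mutant kinase and peptide were prepared in HEPES pH 6.5 buffer with BRIJ-35, MgCl2, EGTA and NaN3, then reacted with ATP for 1 h at room temperature. Development reagent was added for a further hour before the fluorescence readout.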

BTK = BTK (Homo sapiens (Human), UniProt Q06187); experiment: Z'-LYTE kinase inhibition assay, BTK; assay type: biochemical; conditions: for IC50: read-out: IC50 against BTK
BTK, sequence (Q06187 whole entry): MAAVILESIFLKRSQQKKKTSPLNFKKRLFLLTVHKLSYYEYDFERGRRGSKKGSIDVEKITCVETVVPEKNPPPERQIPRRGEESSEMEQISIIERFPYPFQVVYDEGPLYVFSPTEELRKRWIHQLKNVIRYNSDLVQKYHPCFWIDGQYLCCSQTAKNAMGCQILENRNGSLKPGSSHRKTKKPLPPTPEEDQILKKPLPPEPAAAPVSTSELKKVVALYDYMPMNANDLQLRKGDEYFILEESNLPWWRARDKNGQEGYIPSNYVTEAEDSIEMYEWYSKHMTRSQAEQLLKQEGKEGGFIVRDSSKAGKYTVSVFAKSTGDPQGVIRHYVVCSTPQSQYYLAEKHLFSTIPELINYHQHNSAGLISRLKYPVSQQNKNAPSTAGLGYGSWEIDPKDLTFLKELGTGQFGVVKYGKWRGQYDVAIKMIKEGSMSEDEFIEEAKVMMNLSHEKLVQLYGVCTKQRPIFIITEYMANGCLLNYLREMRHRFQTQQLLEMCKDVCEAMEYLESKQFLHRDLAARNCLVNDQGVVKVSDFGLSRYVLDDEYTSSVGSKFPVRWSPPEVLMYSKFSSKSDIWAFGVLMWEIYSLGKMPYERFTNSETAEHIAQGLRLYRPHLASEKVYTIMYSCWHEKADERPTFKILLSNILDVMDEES
Description: Inhibitory activities of compounds against BTK, EGFR and EGFR mutants (EGFR L858R, EGFR T790M, EGFR L858R/T790M), FGFR1, FGFR2, JAK2, JAK3 and KDR were measured by Invitrogen using Z'-LYTE® Method as briefly described in the following.
Test Compounds are screened in 1% DMSO (final) in the well. For 10 point titrations, 3-fold serial dilutions are conducted from the starting concentration. All ATP Solutions are diluted to a 4× working concentration in Kinase Buffer (50 mM HEPES pH 7.5, 0.01% BRIJ-35, 10 mM MgCl2, 1 mM EGTA). Peptide/Kinase Mixtures are diluted to a 2× working concentration in the appropriate Kinase Buffers as described below.
(v) Peptide/Kinase Mixtures for Measurement of BTK:
The 2×BTK/Tyr 01 mixture is prepared in 50 mM HEPES pH 7.5. 0.01% BRIJ-35, 10 mM MgCl2, 1 mM EGTA.
The mixture is then incubated for another 60-minute at room temperature for development reaction. Finally fluorescence is read by plate reader.
To determine IC50 of a compound against EGFR, EGFR mutant and other kinases, a series of concentrations of the compound were tested for the inhibition. […] The scale utilized in Table 4 is as follows: +++ less than 100 nM, ++ 100-500 nM and + greater than 500 nM.

H1975 tumor xenografts = experiment: Inhibition of tumor growth in H1975 xenograft model; assay type: in vivo, BALB/c female nude mice; conditions: 30 mg/kg, Intraperitoneal injection, QD x 14; for Tumor Volume Pre-treatment: baseline before treatment
Description: H1975 cells were implanted in BALB/c female nude mice and grown as tumor xenografts. When tumors achieved 120-200 mm^3, mice were assigned into treatment and control groups using randomized block design based upon their tumor volumes. Each group contained 6 tumor-bearing mice. Tumors were measured twice weekly in two dimensions using a caliper, and the tumor volume was calculated from two-dimensional measurements using the equation V=0.5×a×b^2 where a and b are the long and short diameters of the tumor, respectively. Relative tumor volume (RTV) was defined as TVt/TVi, the ratio of the volume on a given day (TVt) and the volume at the start of treatment (TVi). Relative tumor growth rate (T/C) was defined as RTVT/RTVC, the ratio of relative tumor volume of treatment group (RTVT) and relative tumor volume of control group (RTVC) on a given day.

| Compound | IC50 (H1975 cells) [nM] | IC50 (A431 cells) [nM] | IC50 (H3255 cells) [nM] | IC50 (HCC827 cells) [nM] | inhibition at 1 µM (EGFR (ErbB1); read-out: % inhibition against EGFR (Compound at 1 μM)) [%] | inhibition at 1 µM (EGFR (ErbB1) T790M L858R; read-out: % inhibition against EGFR L858R/T790M (Compound at 1 μM)) [%] | IC50 (BTK) [nM] | inhibition at 0.041 µM (EGFR (ErbB1)) [%] | IC50 (EGFR (ErbB1) T790M L858R) [nM] | T/C (relative tumor growth rate) (H1975 tumor xenografts) [%] | Tumor Volume Post-treatment (H1975 tumor xenografts) [mm^3] | Tumor Volume Pre-treatment (H1975 tumor xenografts) [mm^3] | inhibition at 0.0137 µM (EGFR (ErbB1) T790M L858R) [%] | IC50 (EGFR (ErbB1)) [nM] | inhibition at 0.041 µM (BTK; compound at 0.041 μM, read-out: % inhibition against BTK) [%] |
| --- | --- | --- | --- | --- | --- | --- | --- | --- | --- | --- | --- | --- | --- | --- | --- |
| C=CC(=O)Nc1cccc(-c2cccc3cnc(Nc4ccc(N5CCN(CC)CC5)cc4)nc23)c1 [Example C029, N-(3-(2-((4-(4-ethylpiperazin-1-yl)phenyl)amino)quinazolin-8-yl)phenyl)acrylamide] | 100 to 500 | 100 to 500 | > 500 | < 100 | > 50 | > 50 | – | – | – | – | – | – | – | – | – |
| C=CC(=O)Nc1cccc(-c2cccc3cnc(Nc4ccc(OC5CCN(C)CC5F)cc4)nc23)c1 (stereo not drawn) [Example C079, N-(3-(2-((4-((3-fluoro-1-methylpiperidin-4-yl)oxy)phenyl)amino)quinazolin-8-yl)phenyl)acrylamide] | < 100 | 100 to 500 | 100 to 500 | – | – | – | < 100 | < 50 | < 100 | – | – | – | – | – | – |
| C=CC(=O)Nc1cccc(-c2cccc3cnc(Nc4ccc(NC5CN(CCF)C5)cc4)nc23)c1 [Example C103, N-(3-(2-((4-((1-(2-fluoroethyl)azetidin-3-yl)amino)phenyl)amino)quinazolin-8-yl)phenyl)acrylamide] | < 100 | < 100 | 100 to 500 | – | – | – | – | < 50 | < 100 | 35.8 | 748.7 | 150.9 | > 50 | – | – |
| C=CC(=O)Nc1cccc(-c2cccc3cnc(Nc4ccc(NC5CCN(C)CC5F)cc4)nc23)c1 (stereo not drawn) [Example C105, N-(3-(2-((4-((3-fluoro-1-methylpiperidin-4-yl)amino)phenyl)amino)quinazolin-8-yl)phenyl)acrylamide] | < 100 | 100 to 500 | < 100 | < 100 | – | – | < 100 | < 50 | < 100 | – | – | – | – | < 100 | – |
| C=CC(=O)Nc1cccc(-c2cccc3cnc(Nc4ccc(N5CCN(C)CC5=O)cc4)nc23)c1 [Example C106, N-(3-(2-((4-(4-methyl-2-oxopiperazin-1-yl)phenyl)amino)quinazolin-8-yl)phenyl)acrylamide] | < 100 | < 100 | 100 to 500 | – | – | – | < 100 | – | < 100 | – | – | – | – | > 500 | – |
| C=CC(=O)Nc1cccc(-c2cccc3cnc(Nc4ccc(OCCOC)cc4)nc23)c1 [Example C107, N-(3-(2-((4-(2-methoxyethoxy)phenyl)amino)quinazolin-8-yl)phenyl)acrylamide] | < 100 | < 100 | 100 to 500 | – | – | – | < 100 | – | < 100 | 63.6 | 1341.7 | 150.6 | – | > 500 | – |
| C=CC(=O)Nc1cccc(-c2cccc3cnc(Nc4ccc(NC5CCN(C)CC5)cc4)nc23)c1 [Example C118, N-(3-(2-((4-((1-methylpiperidin-4-yl)amino)phenyl)amino)quinazolin-8-yl)phenyl)acrylamide] | < 100 | < 100 | 100 to 500 | – | – | – | – | > 50 | < 100 | – | – | – | > 50 | – | > 50 |
| C=CC(=O)Nc1cccc(-c2cccc3cnc(Nc4ccc(N[C@H]5CCN(C)C5)cc4)nc23)c1 [Example C127, (S)-N-(3-(2-((4-((1-methylpyrrolidin-3-yl)amino)phenyl)amino)quinazolin-8-yl)phenyl)acrylamide] | < 100 | < 100 | 100 to 500 | – | – | – | – | > 50 | < 100 | – | – | – | > 50 | – | – |
| C=CC(=O)Nc1cccc(-c2cccc3cnc(Nc4ccc(OC5CCN(CCO)CC5)cc4)nc23)c1 [Example C137, N-(3-(2-((4-((1-(2-hydroxyethyl)piperidin-4-yl)oxy)phenyl)amino)quinazolin-8-yl)phenyl)acrylamide] | < 100 | 100 to 500 | > 500 | – | – | – | – | > 50 | < 100 | – | – | – | > 50 | – | – |
| C=CC(=O)Nc1cccc(-c2cccc3cnc(Nc4ccc(NC5CCN(CCO)CC5)cc4)nc23)c1 [Example C139, N-(3-(2-((4-((1-(2-hydroxyethyl)piperidin-4-yl)amino)phenyl)amino)quinazolin-8-yl)phenyl)acrylamide] | < 100 | < 100 | 100 to 500 | – | – | – | – | > 50 | < 100 | – | – | – | > 50 | – | – |
| C=CC(=O)Nc1cccc(-c2cccc3cnc(Nc4ccc(NC5CCN(C)CC5)cc4F)nc23)c1 [Example C140, N-(3-(2-((2-fluoro-4-((1-methylpiperidin-4-yl)amino)phenyl)amino)quinazolin-8-yl)phenyl)acrylamide] | < 100 | > 500 | > 500 | – | – | – | – | > 50 | < 100 | – | – | – | > 50 | – | – |
| C=CC(=O)Nc1cccc(-c2cccc3cnc(Nc4ccc(OC5CCN(C)CC5)cc4F)nc23)c1 [Example C141, N-(3-(2-((2-fluoro-4-((1-methylpiperidin-4-yl)oxy)phenyl)amino)quinazolin-8-yl)phenyl)acrylamide] | < 100 | 100 to 500 | 100 to 500 | < 100 | – | – | – | > 50 | < 100 | – | – | – | > 50 | – | – |
| C=CC(=O)Nc1cccc(-c2cccc3cnc(Nc4ccc(N5CCN(CC(C)(C)O)CC5)cc4)nc23)c1 [Example C145, N-(3-(2-((4-(4-(2-hydroxy-2-methylpropyl)piperazin-1-yl)phenyl)amino)quinazolin-8-yl)phenyl)acrylamide] | < 100 | 100 to 500 | > 500 | < 100 | – | – | – | < 50 | < 100 | – | – | – | > 50 | – | – |
| C=CC(=O)Nc1cccc(-c2cccc3cnc(Nc4ccc(N5CCN(CCOC)CC5)cc4)nc23)c1 [Example C152, N-(3-(2-((4-(4-(2-methoxyethyl)piperazin-1-yl)phenyl)amino)quinazolin-8-yl)phenyl)acrylamide] | < 100 | 100 to 500 | 100 to 500 | – | – | – | – | < 50 | – | – | – | – | > 50 | – | – |
| C=CC(=O)Nc1cccc(-c2cccc3cnc(Nc4cc(F)c(N5CCN(CCOC)CC5)cc4F)nc23)c1 [Example C161, N-(3-(2-((2,5-difluoro-4-(4-(2-methoxyethyl)piperazin-1-yl)phenyl)amino)quinazolin-8-yl)phenyl)acrylamide] | 100 to 500 | – | > 500 | – | – | – | – | – | – | – | – | – | < 50 | – | – |
| C=CC(=O)Nc1cccc(-c2cccc3cnc(Nc4cc(F)c(N5CCN(CCO)CC5)cc4F)nc23)c1 [Example C162, N-(3-(2-((2,5-difluoro-4-(4-(2-hydroxyethyl)piperazin-1-yl)phenyl)amino)quinazolin-8-yl)phenyl)acrylamide] | 100 to 500 | – | > 500 | – | – | – | – | – | – | – | – | – | – | – | – |
